Tested on: human TH17 cells
Assay: Inhibition of IL-17 release from human TH17 cells
Type: cell-based
Settings: Homo sapiens, 96 h, isolated human TH17 cells, 4 days culture, IL-17A by HTRF; read-out: pIC50 IL-17 release (converted)
How it was run: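 TH17 cells (CD4+CXCR3-CCR6+) enriched from healthy-donor PBMC isolated from heparinized whole blood. Supernatants collected on day 4; IL-17A quantified by HTRF.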

SMILES | IC50 [nM]
CS(=O)(=O)c1ccc2c(c1)CN(C(=O)C1CC(O)C1)C2C(=O)Nc1ccc(C(O)(C(F)(F)F)C(F)(F)F)cc1 (stereo not drawn) [Example 430, N-[4-(1,1,1,3,3,3-Hexafluoro-2-hydroxypropan-2-yl)phenyl]-2-[(trans-3-hydroxycyclobutyl)carbonyl]-5-(methylsulfonyl)-2,3-dihydro-1H-isoindole-1-carboxamide] | 126
CC1(C(=O)N2Cc3cc(S(C)(=O)=O)ccc3C2C(=O)Nc2ccc(C(O)(C(F)(F)F)C(F)(F)F)cc2)CCO1 (racemic) [Example 445] | 25.1
CC(CF)C(=O)N1Cc2cc(S(C)(=O)=O)ccc2C1C(=O)Nc1ccc(C(O)(C(F)(F)F)C(F)(F)F)cc1 (stereo not shown) [Example 408, 2-(3-Fluoro-2-methylpropanoyl)-N-[4-(1,1,1,3,3,3-hexafluoro-2-hydroxypropan-2-yl)phenyl]-5-(methylsulfonyl)-2,3-dihydro-1H-isoindole-1-carboxamide] | 12.6
CC1(C(=O)N2Cc3cc(S(C)(=O)=O)ccc3C2C(=O)Nc2ccc(C(O)(C(F)(F)F)C(F)(F)F)cc2)COC1 (stereo not shown) [Example 443] | 100
CNS(=O)(=O)c1ccc2c(c1)CN(C(=O)C1(OC)CC1)C2C(=O)Nc1ccc(C(O)(C(F)(F)F)C(F)(F)F)cc1 (stereo not shown) [Example 306, N-[4-(1,1,1,3,3,3-Hexafluoro-2-hydroxypropan-2-yl)phenyl]-2-[(1-methoxycyclopropyl)carbonyl]-5-(methylsulfamoyl)-2,3-dihydro-1H-isoindole-1-carboxamide] | 20
CC[C@@H](O)C(=O)N1Cc2cc(S(C)(=O)=O)ccc2C1C(=O)Nc1ccc(C(O)(C(F)(F)F)C(F)(F)F)cc1 (single isomer, unassigned) [Example 409, isomer 1] | 63.1
CCS(=O)(=O)c1ccc2c(c1)CN(C(=O)CC1CCC1)C2C(=O)Nc1ccc(C(O)(C(F)(F)F)C(F)(F)F)cc1 (stereo not shown) [Example 109, 2-(Cyclobutylacetyl)-5-(ethylsulfonyl)-N-[4-(1,1,1,3,3,3-hexafluoro-2-hydroxypropan-2-yl)phenyl]-2,3-dihydro-1H-isoindole-1-carboxamide] | 20
C[C@H](O)CC(=O)N1Cc2cc(S(C)(=O)=O)ccc2C1C(=O)Nc1ccc(C(O)(C(F)(F)F)C(F)(F)F)cc1 (stereo partly drawn) [Example 433, N-[4-(1,1,1,3,3,3-Hexafluoro-2-hydroxypropan-2-yl)phenyl]-2-[(3S)-3-hydroxybutanoyl]-5-(methylsulfonyl)-2,3-dihydro-1H-isoindole-1-carboxamide] | 79.4
CC(=O)N1Cc2cc(S(=O)(=O)CC3(O)CC3)ccc2C1C(=O)Nc1ccc(C(O)(C(F)(F)F)C(F)(F)F)cc1 (stereo not shown) [Example 1101, 2-Acetyl-N-[4-(1,1,1,3,3,3-hexafluoro-2-hydroxypropan-2-yl)phenyl]-5-{[(1-hydroxycyclopropyl)methyl]sulfonyl}-2,3-dihydro-1H-isoindole-1-carboxamide] | 63.1
CCOC(=O)N1Cc2cc(S(=O)(=O)NC)ccc2C1C(=O)Nc1ccc(C(O)(C(F)(F)F)C(F)(F)F)cc1 (stereo not shown) [Example 305, Ethyl 1-{[4-(1,1,1,3,3,3-hexafluoro-2-hydroxypropan-2-yl)phenyl]carbamoyl}-5-(methylsulfamoyl)-1,3-dihydro-2H-isoindole-2-carboxylate] | 10
O=CN1Cc2cc(S(=O)(=O)CC3(O)CC3)ccc2C1C(=O)Nc1ccc(C(O)(C(F)(F)F)C(F)(F)F)cc1 (stereo not shown) [Example 1102, 2-Formyl-N-[4-(1,1,1,3,3,3-hexafluoro-2-hydroxypropan-2-yl)phenyl]-5-{[(1-hydroxycyclopropyl)methyl]sulfonyl}-2,3-dihydro-1H-isoindole-1-carboxamide] | 31.6
CC(C)OC(=O)N1Cc2cc(S(C)(=O)=O)ccc2C1C(=O)Nc1ccc(C(O)(C(F)(F)F)C(F)(F)F)cc1 (stereo not shown) [Example 420, Propan-2-yl 1-{[4-(1,1,1,3,3,3-hexafluoro-2-hydroxypropan-2-yl)phenyl]carbamoyl}-5-(methylsulfonyl)-1,3-dihydro-2H-isoindole-2-carboxylate] | 79.4
COC1(CC(=O)N2Cc3cc(S(C)(=O)=O)ccc3C2C(=O)Nc2ccc(C(O)(C(F)(F)F)C(F)(F)F)cc2)CC1 (stereo not shown) [Example 417, N-[4-(1,1,1,3,3,3-Hexafluoro-2-hydroxypropan-2-yl)phenyl]-2-[(1-methoxycyclopropyl)acetyl]-5-(methylsulfonyl)-2,3-dihydro-1H-isoindole-1-carboxamide] | 31.6
CC(C)[C@@H](O)C(=O)N1Cc2cc(S(C)(=O)=O)ccc2C1C(=O)Nc1ccc(C(O)(C(F)(F)F)C(F)(F)F)cc1 (single isomer, unassigned) [Example 422] | 39.8
O=C(Nc1ccc(C(O)(C(F)(F)F)C(F)(F)F)cc1)C1c2ccc(S(=O)(=O)CC3CC3)cc2CN1C(=O)C1CCOC1 (stereo not shown) [Example 210, 5-[(Cyclopropylmethyl)sulfonyl]-N-[4-(1,1,1,3,3,3-hexafluoro-2-hydroxypropan-2-yl)phenyl]-2-(tetrahydrofuran-3-ylcarbonyl)-2,3-dihydro-1H-isoindole-1-carboxamide] | 25.1
COC1(C(=O)N2Cc3cc(S(=O)(=O)CCO)ccc3C2C(=O)Nc2ccc(C(O)(C(F)(F)F)C(F)(F)F)cc2)CC1 (stereo not shown) [Example 802, N-[4-(1,1,1,3,3,3-Hexafluoro-2-hydroxypropan-2-yl)phenyl]-5-[(2-hydroxyethyl)sulfonyl]-2-[(1-methoxycyclopropyl)carbonyl]-2,3-dihydro-1H-isoindole-1-carboxamide] | 79.4

From patent US10988445B2 (AstraZeneca AB, priority 2015, dated 2021)
